Measured values as given in patent US7067500B2, “Betaines as adjuvants to susceptibility testing and antimicrobial therapy” (priority 1997, dated 2006).
Values joined by “and” are separate entries in the source; they are usually repeats but may differ in a detail not shown here. Identical values can stand only once. “Also recorded” adds a separate entry of the source. Counter-ions that a name gives are not always drawn.

Columns and labels:
[1] = tested on: M. tuberculosis isolate 571/573-BAL; experiment: Planting in lecithin at low inocula, BACTEC 12B growth curves; type: cell-based, Mycobacterium tuberculosis; conditions: CB-18 (17 μg/ml) combined with P/caz; inocula 165±54, 33±11 and 8±3 cfu
From the text: In this experiment the 571/573-BAL isolate was cultivated on 7H11-selective media, serially diluted in NALC/citrate to approximately 1,000×. In an attempt to examine how the inoculum impacted the results of this assay three different stocks were manufactured, one series in buffer and one series in CB-18. […] The planting solutions were manufactured by mixing these three stocks 1:1 with either buffer or a buffered solution of lecithin (Sigma, St. Louis, Mo.; Cat.#: P 5394 (7.5% lecithin was made up as a 100× concentrate in 100% ethanol (3 grams in 40 mls) and diluted in the Tris buffer of Example 1 immediately prior to use)). The final dilutions of three different planting solutions were approximately 5000×, 25,000×, and 100,000×. The final concentration of CB-18 and lecithin in the appropriate planting solutions was approximately 0.5 mM. […] The final concentration of both lecithin and CB-18 during incubation was approximately 17 μg/ml.
Aliquots of the three stocks (i.e., 2,500×, 12,500× and 50,000×) were also taken for quantitative culture by plating on 7H10 plates (Becton Dickinson, Cockeysville, Md.). […] FIG. 5A presents the 5,000× series planted in either buffer or buffer containing lecithin, and FIG. 5B presents the 5,000× series planted in CB-18 or CB-18 combined with lecithin. FIG. 5C presents the 25,000× series planted in either buffer or buffer containing lecithin, and FIG. 5D presents the 25,000× series planted in CB-18 or CB-18 combined with lecithin. FIG. 5E presents the 100,000× series planted in either buffer or buffer containing lecithin, and FIG. 5F presents the 100,000× series planted in CB-18 or CB-18 combined with lecithin.

[2] = tested on: M. tuberculosis isolates ATCC 27294 and 571/573-BAL; experiment: CB-18 and TMA-18 comparison, BACTEC 12B growth curves; type: cell-based, Mycobacterium tuberculosis
Description: If the mechanism of CB-18's action was similar to that of the quaternary salts (i.e., generally deleterious), then some delay would be anticipated. For example, if the CB-18 effect was a consequence of the surface active property of the detergent, then disruption of cellular function would not only have nonspecific long term consequences, but would also be independent of the isolate. In an effort to examine the similarity in the mechanism, CB-18 was assayed in parallel with trimethyloctadecylammonium bromide (TMA-18 (Aldrich, Milwaukee, Wis., Cat.# 35,924-6): made as a 100× stock in 1:1, water:isopropanol similar to that described for CB-18 in Example 1). The experimental design is outlined in FIG. 6.
In this experiment both ATCC 27294 and 571/573-BAL were cultivated on 7H11-selective media, and then serially diluted in NALC/citrate to 10,000×. The planting solution (i.e., the final dilution (50,000×)) was manufactured by diluting into either buffer, 0.5 mM CB-18, or 0.1 mM TMA-18 (all concentrations represent the final detergent concentration in the planting solution). […] The final concentration of CB-18 during incubation was approximately 17 μg/ml. The final concentration of TMA-18 during incubation was approximately 3.4 μg/ml. […] FIGS. 7A–7C show one experiment wherein ATCC 27294 cells were planted in the different solutions described above, and FIGS. 8A–8C show a parallel experiment wherein 571/573-BAL cells were planted in the same series.

[3] = tested on: M. tuberculosis complex isolates ATCC 27294 and 571/573-BAL; experiment: CB-18 titration, BACTEC 12B growth curves; type: cell-based, Mycobacterium tuberculosis; conditions: for CB-18 concentration at which growth was completely shut down / CB-18 concentration at which growth was impacted to a minor degree: absence of antibiotics
[4] = tested on: M. avium complex isolates ATCC 25291 and 802-BAL; experiment: CB-18 titration, BACTEC 12B growth curves; type: cell-based; conditions: MAC isolate 802-BAL; CB-18 alone (7–27 μg/ml tested)
[5] = tested on: M. fortuitum complex isolates ATCC 6841 and 495-JHH; experiment: CB-18 titration, BACTEC 12B growth curves; type: cell-based; conditions: M. fortuitum 495-JHH
[6] = tested on: M. tuberculosis isolate 571/573-BAL; experiment: Detergent screen for induced susceptibility, BACTEC 12B growth curves; type: cell-based, Mycobacterium tuberculosis; conditions: for effect on growth characteristics: 571/573-BAL
[7] = tested on: M. tuberculosis isolates ATCC 27294 and 571/573-BAL; experiment: CB-18 vs. EDTA, BACTEC 12B growth curves; type: cell-based, Mycobacterium tuberculosis
[8] = tested on: M. tuberculosis isolates ATCC 27294 and 571/573-BAL; experiment: Mycobacterial susceptibility testing (proportion method criteria) with CB-18 and P-cax; type: cell-based, Mycobacterium tuberculosis
[9] = tested on: M. tuberculosis isolates ATCC 27294 and 571/573-BAL; experiment: Processing in CB-18 vs. planting in CB-18, BACTEC 12B growth curves
[10] = ATCC 27294, presence of antibiotics

CCCCCCCCCCCCCCCCCC[N+](C)(C)CCCC(=O)[O-] [CB-18, N-(3-carboxypropyl)-N,N-dimethyl-1-octadecanaminium, inner salt]
culture result of replicate bottles [1]: negative | effect on growth ([2]; 571/573-BAL, 17 μg/ml CB-18, R.F., PANTA and P/cax): delays in all conditions became obvious | effect on growth ([2]; 571/573-BAL, 17 μg/ml CB-18 with P/cax): dramatic delay | effect on growth ([2]; ATCC 27294, 17 μg/ml CB-18 in PANTA alone): minor delays | effect on growth ([2]; ATCC 27294, 17 μg/ml CB-18 with P/cax): significant delays | CB-18 concentration at which the isolate was viable ([3]; 571/573-BAL, CB-18 alone): 13 µg/mL | CB-18 concentration at which growth was completely shut down ([3]; 571/573-BAL): 27 µg/mL | CB-18 concentration at which growth was impacted to a minor degree ([3]; 571/573-BAL): 13 µg/mL | CB-18 concentration at which growth was absent ([3]; 571/573-BAL, presence of antibiotics): 13 µg/mL | CB-18 concentration at which growth was completely shut down ([3]; ATCC 27294): 54 µg/mL | CB-18 concentration at which growth was impacted to a minor degree ([3]; ATCC 27294): 27 µg/mL | CB-18 concentration at which growth was affected to a minor degree [3, 10]: 13 µg/mL | CB-18 concentration at which growth was nonexistent [3, 10]: 27 µg/mL | CB-18 concentration causing no alteration in growth ([3]; ATCC 27294 and 571/573-BAL, absence of antibiotics (FIGS. 10A and 11A)): 3 to 7 µg/mL | CB-18 concentration at which viability falls off [4]: not affected at the test concentrations; also recorded: Viability is unaffected at levels tested | CB-18 concentration at which the isolate was viable / able to grow to some degree ([5]; CB-18 alone): 109 µg/mL | CB-18 concentration at which growth was affected to some degree ([5]; combined with cefoxitin): 13 µg/mL | CB-18 concentration at which growth was completely inhibited ([5]; combined with cefoxitin): 27 µg/mL | effect on growth characteristics ([6]; CB-18 (17 μg/ml) combined with antibiotics (PANTA, P/cax)): synergistically deleterious | effect on growth characteristics ([6]; CB-18 alone (17 μg/ml, R.F.)): had an impact on the growth characteristics | CB-18 effect in the methods of the invention ([6]; carboxybetaines tested): show the CB-18 effect | effect on growth ([7]; 571/573-BAL, CB-18 alone 17 μg/ml): suppressed | effect on growth ([7]; ATCC 27294, CB-18 alone 17 μg/ml, absence of MgCl2): unaffected | effect on growth ([7]; ATCC 27294 and 571/573-BAL, CB-18 17 μg/ml with P/cax): synergistically deleterious | CB-18 concentration at which the isolate would have been reported as susceptible ([8]; 571/573-BAL, 10×-dilution (111,000 ± 17,900 cfu), in the presence of P-cax): 60 µg/mL and 30 µg/mL | CB-18 concentration at which the isolate would have been reported as susceptible ([8]; 571/573-BAL, 100×-dilution (11,100 ± 1,790 cfu), in the presence of P-cax): 15 µg/mL | CB-18 concentration at which the isolate would have been reported as susceptible ([8]; ATCC 27294, 10×-dilution (62,800 ± 5,700 cfu), in the presence of P-cax): 60 µg/mL | CB-18 concentration at which the isolate would have been deemed susceptible ([8]; ATCC 27294, 100×-dilution (6,280 ± 570 cfu), in the presence of P-cax): 30 µg/mL | growth of isolates ([8]; both isolates, high input (>1×10^5 cfu), 30 μg/ml CB-18): grew unimpeded during the first week | effect on growth characteristics ([9]; 571/573-BAL, 90 minute exposure to CB-18 at 383 μg/ml, planted in buffer): no apparent effect on growth characteristics | CB-18 concentration in the culture bottle at which growth was unimpeded ([9]; 571/573-BAL, processed in CB-18, then diluted): < 1 µg/mL | impact on growth characteristics ([9]; ATCC 27294, processed in CB-18 (383 μg/ml) and/or planted in CB-18 (17 μg/ml final), PANTA or P/caz): generally unaffected | post antibiotic effect ([9]; cells processed in CB-18 but planted in buffer): no post antibiotic effect; also recorded: no “post antibiotic effect”
